This is an account of results in paper PMC6030096, “Synergy of Physico-chemical and Biological Experiments for Developing a Cyclooxygenase-2 Inhibitor” (Scientific Reports, 2018).

The target of assay [1] is T1, COX-1 (Ovis aries, UniProt P05979).
T1 construct: purchased Cayman Chemical Co. 560131
T1 sequence (P05979 25-600): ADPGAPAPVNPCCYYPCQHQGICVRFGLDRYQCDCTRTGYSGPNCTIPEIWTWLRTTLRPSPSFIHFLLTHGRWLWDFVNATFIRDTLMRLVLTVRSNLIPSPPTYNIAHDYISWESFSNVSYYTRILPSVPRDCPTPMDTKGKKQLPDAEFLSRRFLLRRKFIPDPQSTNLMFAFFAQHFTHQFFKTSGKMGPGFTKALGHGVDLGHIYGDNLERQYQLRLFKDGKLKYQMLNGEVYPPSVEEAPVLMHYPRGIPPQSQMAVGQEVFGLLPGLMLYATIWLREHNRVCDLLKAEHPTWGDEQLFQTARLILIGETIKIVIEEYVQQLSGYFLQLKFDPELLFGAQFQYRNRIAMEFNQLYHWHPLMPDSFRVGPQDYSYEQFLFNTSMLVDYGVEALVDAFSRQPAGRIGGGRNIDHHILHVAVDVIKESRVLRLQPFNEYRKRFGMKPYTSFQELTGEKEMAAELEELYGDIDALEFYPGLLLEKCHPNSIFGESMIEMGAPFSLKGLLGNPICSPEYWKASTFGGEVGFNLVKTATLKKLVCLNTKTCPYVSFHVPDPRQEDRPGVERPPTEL
The experiment in a line: COX-1 enzyme immunoassay (Cayman inhibitor screening kit). Format: biochemical. The protocol:
Principally, the catalytic activity of COX-1/2 is slowed down in the presence of its inhibitor and quantitatively, it is inversely proportional to the amount of prostaglandin produced in the presence of inhibitor.
The enzyme inhibition screening assay kits for COX-1/2 and 5-LOX with item no. […] The 100% initial activity tubes for the two enzymes contained 10 µL heme and 10 µL of the enzyme in 160 µL reaction buffer. Then 10 µL inhibitor (compound of above mentioned concentrations) was added to the inhibitor tubes for the two enzymes and 10 µL of vehicle (DMSO) was added to 100% initial activity and background tubes. All the tubes were incubated for 10 min at 37 °C and the reaction was started by adding 10 µL arachidonic acid to all the reaction tubes. After incubation of the reaction vials for 2 min at 37 °C, the enzyme catalysis was stopped by adding 30 µL saturated stannous chloride solution to each test tube and solutions were kept at 0–4 °C. For EIA (enzyme immunoassay) procedure: the EIA buffers and assay specific reagents were prepared as written in the manual. In the COX dilutions, two test tubes labelled as BC1 and BC2 were taken to prepare background samples. Each tube contained 990 µL of EIA buffer and 10 µL of background COX-1 for BC1 and 10 µL of background COX-2 for BC2. The samples for 100% initial activity were diluted in three vials labelled IA1, IA2 and IA3 for each enzyme. IA1 contained 990 µL EIA buffer and 10 µL enzyme, IA2 has 950 µL buffer and 50 µL solution of IA1 (1:2000 dilution of original sample) and IA3 carried 500 µL of buffer and 500 µL of IA2 solution (1:4000 dilution of original sample). Each solution was thoroughly mixed. Solutions of IA2 and IA3 were used for the assaying. […] C2 contained 950 µL buffer and 50 µL solution of C1 (1:2000 dilution of original sample) and vial C3 was charged with 500 µL buffer and 500 µL solution from C2 (1: 4000 dilution of original sample). Only C2 and C3 were run in the assay. After all the reaction dilutions, these were then subjected to 96 wells plate. The wells were divided as: 2 blank wells, 2 NSB wells (non-specific binding), 3 B0 wells (maximum binding), one TA well (total activity), 16 wells for standards (S1–S8 in repeat), 2 BC1 and 2 BC2 wells. Compounds (inhibitors) were put in all the other wells. The sequence for the addition of reagents onto the plate was as per the protocol of the assay kit. […] For developing the plate; it was emptied and washed with wash buffer 5 times followed by the addition of 200 µL Ellman’s reagent to each well. 5 µL tracer was added to the TA well. Then the plate was covered and left for 60 mins for development in dark. After the respective time period the cover was removed and the plate was read at 420 nm. %B/Bo (i.e. % sample or maximum bound) value for standards S1-S8 and each sample was determined from the absorbance values obtained according to the calculation given in the protocol. The amount of prostaglandins formed during the enzymatic reaction was calculated from the values of %B/Bo for all the compounds at all concentrations with the help of the standard curve (plotted between %B/Bo of standards and raw data given in the protocol). Then the prostaglandin formed at each concentration of all the compounds and percentage inhibition values were calculated. The graph between percent inhibition of the enzyme and corresponding concentration of the compound provided IC50 values for the compounds.

In assay [2] the target is T2, COX-1 (Homo sapiens, UniProt P23219).
T2 construct: endogenous in cells; host or cells: human whole blood (heparinized, venipuncture)
T2 sequence (P23219 24-599): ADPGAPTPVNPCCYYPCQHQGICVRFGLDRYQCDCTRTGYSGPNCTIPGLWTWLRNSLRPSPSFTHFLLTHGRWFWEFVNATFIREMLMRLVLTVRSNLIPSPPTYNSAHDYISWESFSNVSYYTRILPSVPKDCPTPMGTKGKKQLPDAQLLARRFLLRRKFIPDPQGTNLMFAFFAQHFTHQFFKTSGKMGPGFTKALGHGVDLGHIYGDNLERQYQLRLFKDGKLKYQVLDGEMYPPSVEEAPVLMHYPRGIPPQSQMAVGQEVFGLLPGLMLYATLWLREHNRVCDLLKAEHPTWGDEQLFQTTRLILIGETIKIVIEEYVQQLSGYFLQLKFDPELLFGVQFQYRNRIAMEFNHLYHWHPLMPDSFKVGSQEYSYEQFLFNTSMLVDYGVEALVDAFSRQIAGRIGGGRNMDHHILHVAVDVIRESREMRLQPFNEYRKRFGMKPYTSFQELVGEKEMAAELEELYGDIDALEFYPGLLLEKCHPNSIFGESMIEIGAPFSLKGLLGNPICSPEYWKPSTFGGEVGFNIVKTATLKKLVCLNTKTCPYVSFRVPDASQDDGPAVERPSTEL
The experiment in a line: Human whole blood assay for COX-1 (A23187 stimulated TxB2). Type of assay: cell-based. The conditions noted are these: final conc 1 µM, A23187 50 µM. The text has this: The use of human blood for the whole blood assay was duly approved by the institutional ethical committee of the University for human subjects. Production of prostaglandin PGE2 during lipopolysaccharide (LPS) stimulated whole blood was used to quantify COX-2 inhibitory activity whereas calcium ionophore (A23187) stimulated thromboxane (TxB2) production was used to measure COX-1 inhibitory activity of the compounds.
Approval for the use of human blood was taken from the institutional ethical committee of Guru Nanak Dev University Amritsar and informed consent was obtained from the subject[32],[33]. All experiments were performed in accordance with the relevant guidelines and regulations. By venipuncture, the blood sample was collected in heparinized tubes. […] Each sample in duplicate was assayed for TxB2 (the breakdown product of TxA2) using TXB2 Express ELISA kit (Cayman Chemicals, Ann Arbor, MI) by the reported protocol.

Setting [3] is: enzyme immunoassay, average of three experiments, read-out: IC50 COX-1.

Each structure is given as a SMILES string. Read-outs that look alike come from different tables or passages of the source.

In general, IC50 refers to the midpoint of a concentration-inhibition curve. Regarding `O=C1Nc2ccccc2C1=Cc1cn(C[C@H](O)Cn2c3ccccc3c(=O)c3ccccc32)c2ccccc12` [(S)-3c], the IC50 at COX-1 [1] (setting [3]) was 60 ± 3 µM. For the same molecule, the “Production of TXB2, +Ca^2+ Ionophore” value on COX-1 [2] was determined as 1.80 ± 0.5 ng/mL.

`O=C1NC(=O)C(=Cc2cn(CCCn3c4ccccc4c(=O)c4ccccc43)c3ccccc23)C(=O)N1` [Compound 4a]: on COX-1 [1], inhibition was half-maximal at 30 ± 1.8 µM (IC50). On COX-1 [2], the “Production of TXB2, +Ca^2+ Ionophore” value is 1.84 ± 0.11 ng/mL.

Consider `O=C1Nc2ccccc2C1=Cc1cn(CCCn2c3ccccc3c(=O)c3ccccc32)c2ccccc12` [Compound 4c], for which the IC50 at COX-1 [1] (setting [3]) worked out at 4 ± 0.32 µM. On COX-1 [2], the “Production of TXB2, +Ca^2+ Ionophore” value is recorded as 1.70 ± 0.3 ng/mL.
